Experimental data reported in patent publication US6900193B1, “Structural modification of 19-norprogesterone I: 17-α-substituted-11-β-substituted-4-aryl and 21-substituted 19-norpregnadienedione as new antiprogestational agents” (The United States of America as represented by the …, priority 1996, dated 2005).
“Also recorded” adds a separate entry of the source.

What was measured:
[1] = test system: progesterone-induced endometrial proliferation; test: AntiMcGinty test; type: in vivo, rabbit; settings: for antiprogestational activity compared with the lead compound / standard, in words: antiMcGinty (and antiClauberg), versus CDB-2914 (69B); for ANTIPROGESTATIONAL ACTIVITY ANTI-MCGINITY / ANTIPROGESTATIONAL Anti-McGinty: intraluminal; for ANTIPROGESTATIONAL ACTIVITY ANTI-MCGINITY: estrogen-primed immature rabbits, CDB-2477 = 1.0 (assigned); for ANTIPROGESTATIONAL Anti-McGinty: relative potency, CDB-2914 = 100 (assigned), rabbit
Description: AntiMcGinty Test (McGinty, et al., Endocrinology, 24:829-832 (1939))
Immature female rabbits of the New Zealand White breed (approx. 1 kg body weight) were maintained under standard laboratory conditions and received a subcutaneous injection of 5 μg estradiol in 10% ethanol/sesame oil daily for 6 consecutive days. Twenty-four hours after the last injection of estradiol (day 7) animals underwent sterile abdominal surgery to ligate a 3-4 cm segment of both uterine horns. The experimental compound in appropriate solvent (usually 10% ethanol/sesame oil) was injected intraluminally into the ligated segment of one uterine horn and the vehicle alone into the ligated segment of the contralateral horn. Injection volume was limited to 0.1 ml, and care was taken to prevent leakage. A stimulating dose of progesterone (0.8 mg/day) was administered subcutaneously to each rabbit daily for the next three days (days 7, 8 and 9) for the purpose of inducing endometrial proliferation. All animals were sacrificed on day 10 when a segment central to the ligatures was removed and fixed in 10% neutral buffered formalin and submitted for histological processing. Five micron sections stained with hematoxylin and eosin (H&E) were evaluated microscopically for the degree of endometrial glandular proliferation according to the method of McPhail (McPhail, J. Physiol., 83:145 (1934). The percent inhibition of endometrial proliferation for each rabbit was calculated and the mean of the group of five animals recorded.

[2] = target: T1, glucocorticoid receptor (estrogen-primed rabbit thymus) (Oryctolagus cuniculus, UniProt P59667); test: Relative binding affinity, glucocorticoid receptor; settings: for binding affinity for the glucocorticoid receptor, in words: rabbit thymus, versus CDB-2914 (69B) where stated; for BINDING AFFINITY Glucocortic: Table 2; for BINDING AFFINITY Glucocortic / RELATIVE BINDING AFFINITY Glucocorticoid: estrogen-primed rabbit thymus, dexamethasone = 100%
T1 construct: preparation of cytosols for the progesterone and glucocorticoid receptor assays; from tissue; host or cells: thymus of estradiol-primed immature female New Zealand White rabbits (cytosol)
T1 sequence (P59667 1-772): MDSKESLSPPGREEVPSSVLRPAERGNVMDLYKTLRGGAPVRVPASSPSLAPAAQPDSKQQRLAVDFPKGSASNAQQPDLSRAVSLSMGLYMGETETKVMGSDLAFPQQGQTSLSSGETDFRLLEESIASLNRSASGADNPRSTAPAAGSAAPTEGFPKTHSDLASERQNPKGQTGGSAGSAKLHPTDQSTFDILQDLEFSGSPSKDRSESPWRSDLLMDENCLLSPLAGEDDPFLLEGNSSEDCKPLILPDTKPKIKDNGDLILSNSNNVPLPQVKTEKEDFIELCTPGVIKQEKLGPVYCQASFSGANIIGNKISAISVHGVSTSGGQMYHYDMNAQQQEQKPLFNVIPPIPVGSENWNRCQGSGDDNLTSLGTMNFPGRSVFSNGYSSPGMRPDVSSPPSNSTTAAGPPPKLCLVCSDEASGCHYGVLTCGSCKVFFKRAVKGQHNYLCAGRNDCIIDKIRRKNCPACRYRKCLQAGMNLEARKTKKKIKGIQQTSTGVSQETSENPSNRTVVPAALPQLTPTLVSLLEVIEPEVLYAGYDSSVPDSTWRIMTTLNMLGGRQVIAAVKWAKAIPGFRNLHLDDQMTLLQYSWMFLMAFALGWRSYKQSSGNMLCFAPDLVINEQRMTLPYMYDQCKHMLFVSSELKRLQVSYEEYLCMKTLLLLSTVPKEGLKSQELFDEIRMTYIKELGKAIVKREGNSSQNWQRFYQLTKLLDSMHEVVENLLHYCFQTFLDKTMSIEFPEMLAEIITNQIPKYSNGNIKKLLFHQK

| Structure (SMILES) | antiprogestational activity compared with the lead compound / standard, in words [1] | ANTIPROGESTATIONAL ACTIVITY ANTI-MCGINITY [1] | binding affinity for the glucocorticoid receptor, in words [2] | BINDING AFFINITY Glucocortic [2] | ANTIPROGESTATIONAL Anti-McGinty [1] | RELATIVE BINDING AFFINITY Glucocorticoid [2] |
| --- | --- | --- | --- | --- | --- | --- |
| CC#C[C@]1(O)CC[C@H]2[C@@H]3CCC4=CC(=O)CCC4=C3[C@@H](c3ccc(N(C)C)cc3)C[C@@]21C [mifepristone] | more potent than the standard | 1.0 | greater binding affinity |  |  |  |
| COCC(=O)C1(OC(C)=O)CCC2C3CCC4=CC(=O)CCC4=C3C(c3ccc(N4CCCCC4)cc3)CC21C (stereo not drawn) [Compound 123a, 17α-Acetoxy-1113-[4-(N-piperidino)phenyl]-21-methoxy-19-norpregna-4,9-diene-3,20-dione] |  |  |  | 11% |  |  |
| CC(=O)OCC(=O)[C@@]1(OC(C)=O)CC[C@H]2[C@@H]3CCC4=CC(=O)CCC4=C3[C@@H](c3ccc(C(C)=O)cc3)C[C@@]21C [Compound 106b, 17α,21-Diacetoxy-11β-(4-acetylphenyl)19-norpregna-4,9-diene-3,20-dione] |  |  |  | 14% |  |  |
| CC(=O)O[C@]1(C(C)=O)CC[C@H]2[C@@H]3CCC4=CC(=O)CCC4=C3[C@@H](c3ccc(N4CCCCC4)cc3)C[C@@]21C [Compound 71, 17α-Acetoxy-11β-[4(N-Piperidino)phenyl]-19-norpregna-4,9-diene-3,20-dione] |  |  | low binding affinity | 20% |  |  |
| COCC(=O)[C@@]1(OC)CC[C@H]2[C@@H]3CCC4=CC(=O)CCC4=C3[C@@H](c3ccc(N(C)C)cc3)C[C@@]21C [Compound 113a, 17α,21-Dimethoxy-11β-[4-(N,N-dimethylamino)phenyl]-19-norpregna-4,9-diene-3,20-dione] |  |  | reduced binding affinity | 62% |  |  |
| CC(=O)OCC(=O)[C@@]1(OC(C)=O)CCC2C3CCC4=CC(=O)CCC4=C3C(c3ccc(N(C)C)cc3)C[C@@]21C (stereo partly drawn) [Compound 15, 17α,21-diacetoxy-11β-[4-(N,N-dimethylamino)phenyl]-19-norpregna-4,9-diene-3,20-dione] |  |  | substantial reduction in glucocorticoid binding affinity; also recorded: low binding affinity |  | 300 | 51% |
| CC(=O)O[C@]1(C(=O)CCl)CCC2C3CCC4=CC(=O)CCC4=C3C(c3ccc(N(C)C)cc3)C[C@@]21C (stereo partly shown) [Compound 14A] | did not show significant differences |  |  |  | 75 | 90% |
| CN(C)c1ccc(C2CC3(C)C(CCC34OCC4=O)C3CCC4=CC(=O)CCC4=C23)cc1 (stereo not drawn) [Compound 12, 17-Spirooxetano-3′-oxo-11β-[4-(N,N-dimethylamino)phenyl]-19-norpregna-4,9-dien-3-one] |  |  |  |  | 26 | 32% |
| CC(=O)O[C@]1(C(=O)CF)CCC2C3CCC4=CC(=O)CCC4=C3C(c3ccc(N(C)C)cc3)C[C@@]21C (stereo partly drawn) [Compound 13, 17α-acetoxy-21-fluoro-11β-[4-(N,N-dimethylamino)phenyl]-19-norpregna-4,9-diene-3,20-dione] | did not show significant differences |  |  |  | 103 | 109% |
| CC(=O)O[C@]1(C(C)=O)CC[C@H]2[C@@H]3CCC4=CC(=O)CCC4=C3[C@@H](c3ccc(N(C)C)cc3)C[C@@]21C [Compound 69B, 17α-acetoxy-11β-(4-N,N-dimethylaminophenyl)-19-norpregna-4,9-diene-3,20-dione, reference compound] |  | 0.56 |  | 114% | 100 | 114% |
| CC(=O)O[C@]1(C(=O)CO)CCC2C3CCC4=CC(=O)CCC4=C3C(c3ccc(N(C)C)cc3)C[C@@]21C (stereo partly drawn) [Compound 41, 17α-acetoxy-21-hydroxy-11β-[4-(N,N-dimethylamino)phenyl]-19-norpregna-4,9-diene-3,20-dione] |  |  |  |  |  | 71% |
